The values below come from patent US10188747B2, “Methods and compositions for the treatment of cancer” (THE GENERAL HOSPITAL CORPORATION, priority 2014, dated 2019).

The test system of assay [1] is HKCs. The experiment in a line: Treatment of differentiating HKCs with ER ligands, RT-qPCR and immunoblot analysis. It counts as cell-based, human. To be noted: differentiating HKCs (100% confluence), 72 hours; 10 nM E2, 100 nM DPN, 100 nM PPT, 10 nM fulvestrant vs DMSO. An excerpt:
(§1) FIG. 10B depicts graphs of expression of CYP1B1 determined by RT-qPCR in lung and keratinocyte-derived SCC cell lines in parallel with HBECs and HKCs, respectively. […] Data are presented as mean fold change of fluorescence intensity±SD (*P<0.05). FIG. 10D depicts graphs of indicated SCC cells plated in duplicate on Matrigel precoated chambers with spheroid number quantification 10 days later by ImageJ™ analysis of whole-cell images. Data are duplicates±SD (*P<0.05).
(§2) Besides estrogen, other agonists have been developed with elevated specificity for either the ERα or ERß receptors (43).
(§3) Conditions for RT-qPCR, immunoblotting, immunofluorescence and ChIP assays were as previously reported (9, 42). For immunoblotting, unless otherwise indicated, cells were lysed in SDS sample buffer (50 mM Tris-HCl pH 6.8, 2% SDS, 10% glycerol, 0.2 unit nuclease) and protein separation was done in 15-well 4-12% NuPAGE Bis-Tris polyacrylamide gels (Invitrogen). Equal loading controls were done by re-probing the same immunoblots unless otherwise indicated. All assays were done at least twice, with two HKC strains or epidermal samples of independent origin.

Assay [2] deals with SCC13 (skin), SW900 (lung), and SCCO13 (oral) SCC cells. Kind of assay: DAPT treatment of SCC cells infected with ERβ-expressing viral vectors, RT-qPCR. To be noted: DAPT 10 μM, added 24 hours after infection, analysis 72 hours later; involucrin and keratin 10. Type of assay: cell-based, human. As to the method: FIG. 9A depicts results of SCC cell lines infected with ERβ-expressing viral vectors versus controls as in FIGS. 8A-8E were analyzed for expression of the indicated proteins by immunoblotting. FIG. 9B depicts graphs of SCC13 (skin), SW900 (lung), and SCCO13 (oral) SCC cells infected with ERβ-expressing and control viral vectors were treated 24 hours after infection with DAPT (10 μM) or DMSO control followed, 72 hours later, by RT-qPCR analysis of involucrin and keratin 10 differentiation marker expression. *P<0.05.
To directly assess the impact of increased ERß signaling in SCC outgrowth, a panel of skin, oral and lung SCC cell lines were infected with ERß expressing versus control viruses. […] To test the in vivo impact of increased ERß expression, representative cell lines from skin (SCC13), head/neck (SCCO13) and lung SCCs (H2170) were assessed by intra-dermal tumorigenicity assays in immune compromised mice (42). Cells infected with the ERß expressing lentivirus formed tumors of similar size as the controls, but enhanced Notch1 expression and differentiation (FIGS. 9C-9D).
Conditions for RT-qPCR, immunoblotting, immunofluorescence and ChIP assays were as previously reported (9, 42). […]

Assay [3] relates to HKCs. Kind of assay: DAPT treatment of HKCs infected with Dlx5- and ERβ-expressing retroviruses, RT-qPCR. Type of assay: cell-based, human. Particulars: DAPT 10 μM, added 24 hours after infection, analysis 48 hours later. As to the method: HKCs under differentiating conditions (100% confluence for 3 days: 100% cf+3D) were analyzed in parallel as point of reference. […] FIG. 5B depicts graphs of HKCs with or without infection with EGR3-, DLX5-, and ERβ-expressing retroviruses as in the previous panel were treated with DAPT (10 μM) or DMSO control at 24 hours after infection followed, 48 hours later, by RT-qPCR analysis of involucrin gene expression, with 36β4 for normalization. As an alternative, HKCs stably infected with a shRNA lentivirus against NOTCH1 or empty vector control were superinfected with the EGR3, DLX5, and ERβ expressing retroviruses, followed 72 hours later by RT-qPCR analysis of the same genes. FIG. 5C depicts graphs of HKCs with or without infection with EGR3-, DLX5-, and ERβ-expressing retroviruses as in FIG. 5A were analyzed, 72 hours after infection, by RT-qPCR of the indicated genes. *P<0.001.
Conditions for RT-qPCR, immunoblotting, immunofluorescence and ChIP assays were as previously reported (9, 42). For immunoblotting, unless otherwise indicated, cells were lysed in SDS sample buffer (50 mM Tris-HCl pH 6.8, 2% SDS, 10% glycerol, 0.2 unit nuclease) and protein separation was done in 15-well 4-12% NuPAGE Bis-Tris polyacrylamide gels (Invitrogen). Equal loading controls were done by re-probing the same immunoblots unless otherwise indicated. […]

The test system of another assay is SCC cell lines. The experiment in a line: Treatment of a panel of SCC cell lines with DPN, Notch1 and differentiation marker expression. It counts as cell-based, human.
Description: as §1, §2, §3

The subject of the next assay is SCC cells. Kind of assay: Alamar blue cell density assays of SCC cells. Type of assay: cell-based, human. To be noted: Alamar blue density assay, vs DMSO, refreshed every other day.
Description: as §1
Clonogenicity and Alamar Blue assays were as reported (60). For spheroid assays, 8-well chamber slides were coated with matrigel (BDbiosciences, CA; 50 μl per well) and incubated at 37° C. for 20 minutes to allow matrigel to polymerize. SCC cells were brought into suspension in normal culture medium plus 1% matrigel (7000 cells/ml) and added in triplicates to the pre-coated chamber slides (300 μl of cell mixture per well). Medium was refreshed every other day. For organotypic cultures, HKCs were infected with shRNA expressing lentiviruses followed, 48 hours later, by selection for puromycin ([…]) resistance. Selected keratinocyte cultures were reseeded onto collagen gels with embedded J2-3T3 fibroblasts and cultured at the air-liquid interface as previously described (61). […]

For the next assay, the system named is SCCO13 cells. Kind of assay: Intradermal tumorigenicity assay, ERß agonist study. It counts as in vivo, NOD/SCID mice. On the procedure: SCC013 cells were injected intradermally in the left supra-scapular region of NOD/SCID mice (1×10^6 cells per injection). […] Animals were sacrificed 10 days later. Tumor weight and volume were measured, followed by determination of Ki67-labeling index by immunofluorescence analysis of histological section. *P<0.05.
Lenti-virally-infected SCC13, SCCO13 cells and retro-virally infected H2170 cells were suspended in matrigel followed by intra-dermal injection (1.0×10^6 cells in 150 μl per injection) into the back skin of 6 weeks old NOD/SCID mice (Taconic Farms Inc. Germantown, N.Y.) as described (9, 42). To minimize the individual animal variations, cells infected with control and ERß expressing viruses were injected in parallel in the right and left flank of the same mice. Mice were sacrificed for tissue analysis 3 weeks (SCC13 and SCCO13) or 1 week (H2170) after injection. For ERß agonist studies, SCCO13 cells were injected intra-dermally into NOD/SCID mice as described above.

The subject of assay [4] is skin, oral, and lung SCC cells. The experiment in a line: Spheroid formation assays of SCC cells in Matrigel. It counts as cell-based, human. To be noted: spheroid number 10 days later, vs DMSO.
Description: as §1
In vitro and animal model assays are provided herein which allow the assessment of a given dose of an agonist as described herein. By way of non-limiting example, the effects of a dose of an agonist can be assessed by spheroid assay. A non-limiting example of a protocol for such an assay is as follows: 8-well chamber slides are coated with matrigel (BDbiosciences, CA; 50 μl per well) and incubated at 37° C. for 20 minutes to allow matrigel to polymerize. SCC cells are brought into suspension in normal culture medium plus 1% matrigel (7000 cells/ml) and added in triplicates to the pre-coated chamber slides (300 μl of cell mixture per well). Medium is refreshed every other day. An agonist is added to the medium and cell growth and proliferation measured over time, e.g. by microscopy.
Clonogenicity and Alamar Blue assays were as reported (60). […]

The mark [5] stands for this setting: SCCO13 tumors, 20 mg/kg daily, data not shown.

Structures are written as SMILES.

For `C[C@]12CC[C@@H]3c4ccc(O)cc4CC[C@H]3[C@@H]1CC[C@@H]2O` [17β-estradiol], in the assay with HKCs [1], the Notch1 expression result is given as “induction” and the differentiation marker expression entry was “induction”.
Consider `C[C@H](NC(=O)Cc1cc(F)cc(F)c1)C(=O)N[C@H](C(=O)OC(C)(C)C)c1ccccc1` [DAPT], for which the “induction of differentiation marker expression by increased ERß expression” value in assay [2] was “significantly counteracted”. The “induction of Hey1 and involucrin by enhanced expression of Dlx5 and ERβ” value in the assay on HKCs [3] is listed as “prevented to a large extent”.
Turning to `N#CC(Cc1ccc(O)cc1)c1ccc(O)cc1` (centres unmarked) [DPN, 2,3-bis(4-Hydroxyphenyl)-propionitrile], in the assay on HKCs [1], the Notch1 expression result was “induction” and the differentiation marker expression result is “induction”. In the assay with SCC cell lines, the Notch1 expression result is reported as “induction” and the differentiation marker expression entry is “induction”. The “proliferation of SCC cell lines” value in the assay on SCC cells was “significantly suppressed”. Moreover, the tumor size result in the assay on SCCO13 cells (SCCO13 cells intradermally, 20 mg/kg intraperitoneally daily for 10 days, vs DMSO vehicle) is given as “significantly smaller size”. Besides, in the assay with SCCO13 cells (setting [5]), the “Notch1 expression in tumors” value was “increased” and the “differentiation marker expression in tumors” value is recorded as “increased”. Besides, the “sphere forming capability of SCC cell lines” value in assay [4] is “significantly suppressed”.
`C[C@]12CC[C@@H]3c4ccc(O)cc4C[C@@H](CCCCCCCCC[S+]([O-])CCCC(F)(F)C(F)(F)F)[C@H]3[C@@H]1CC[C@@H]2O` (some centres unmarked) [Fulvestrant]: in the assay with HKCs [1], the Notch1 expression entry is “suppressed” and the differentiation marker expression result is recorded as “suppressed”.
As to `CCCc1c(-c2ccc(O)cc2)nn(-c2ccc(O)cc2)c1-c1ccc(O)cc1` [PPT, 1,3,5-Tris(4-hydroxyphenyl)-4-propyl-1H-pyrazole], in the assay on HKCs [1], the Notch1 expression result is recorded as “Little or no induction” and the differentiation marker expression result was “Little or no induction”.
